Assay results taken from US11716974B2, “Human liver chimeric mouse with deficient P450 oxidoreductase” (Baylor College of Medicine, priority 2016, dated 2023).

Tests used:
[1] = Troglitazone phase II metabolites in livers of humanized and non-humanized mice with and without Por and Ugdh deletion; format: in vivo, mouse; conditions: liver
Method: Percentage of liver glucuronidated and sulfated metabolites detected in humanized livers 2 hours after i.p injection of troglitazone (600 mg/kg). FIG. 25A. Humanized FRG mice. FIG. 25B. Humanized FRG mice after murine Por and Ugdh deletion. FIG. 25C. Non-humanized FRG mice. FIG. 25D. Non-humanized FRG mice with Por and Ugdh genes deleted. Sulfate metabolites of troglitazone in red and glucuronide conjugates in blue.
Troglitazone metabolites (two hours after i.p. injection of 600 mg/kg troglitazone) in the livers of humanized and non-humanized FRG mice with and without Por and Ugdh deletion was analyzed.

[2] = Liver enzymes after gefitinib; conditions: mouse, in vivo
[3] = Gefitinib metabolites M4 and M28 in feces of humanized (Hu-PIRF) and control mice (mass spectrometry); format: in vivo, human liver chimeric mouse
Method: Feces samples were weighted and homogenized in water (100 mg feces in 1,000 μl of H2O). Subsequently, 300 μl of methanol was added to 100 μl of the resulting mixture, followed by centrifugation at 15,000 g for 20 min. The supernatant was transferred to a new Eppendorf vial for a second centrifugation (15,000 g for 20 min). The final concentration of agomelatine is 2 μM. Each supernatant was transferred to an auto sampler vial for analysis (described below).
The column temperature was maintained at 40° C. The flow rate of was 0.3 mL/min with a gradient ranging from 2% to 98% aqueous acetonitrile containing 0.1% formic acid in a 15-min run. Quadrupole time of flight mass spectrometry (QTOFMS) was operated in positive mode with electrospray ionization. Ultra-highly pure nitrogen was applied as the drying gas (12 L/min) and the collision gas. The drying gas temperature was set at 325° C. and nebulizer pressure was kept at 35 psi. The capillary voltages were set at 3.5 kV. During mass spectrometry, real time mass correction and accurate mass were achieved by continuously measuring standard reference ions at m/z 121.0508, 922.0098 in the positive mode. Mass chromatograms and mass spectra were acquired by MassHunter Workstation data Acquisition software (Agilent, Santa Clara, Calif.) in centroid and profile formats from m/z 50 to 1000. The acquisition rate was set as 1.5 spectra per second. […] Meanwhile, the quality control samples were performed every 10 samples in the process of the sample running. Due to the authentic compounds of metabolites not available, the metabolite identification was based on their exact mass and MS/MS fragments. The chromatograms and relative abundance of metabolite were performed on Qualitative Analysis software (Agilent, Santa Clara, Calif.). The relative abundance was evaluated based on integrated peak area of each metabolite.

SMILES	glucuronide conjugates in non-humanized livers of control mice versus humans or humanized mice ([1]; two hours after i.p. injection of 600 mg/kg)	glucuronide conjugates upon deletion of ugdh and por ([1]; non-humanized and humanized mice, two hours after i.p. 600 mg/kg)	elevation of liver enzymes [2]	level of metabolite M4 in feces ([3]; murine Por-deficient Hu-PIRF mice versus Por-expressing humanized and non-humanized control mice)	level of human-specific metabolite M28 in feces ([3]; murine Por-deficient Hu-PIRF mice versus control groups)
Cc1c(C)c2c(c(C)c1O)CCC(C)(COc1ccc(CC3SC(=O)NC3=O)cc1)O2 (centres unmarked) [troglitazone]	much higher amounts	reduced significantly	–	–	–
COc1cc2ncnc(Nc3ccc(F)c(Cl)c3)c2cc1OCCCN1CCOCC1 [gefitinib]	–	–	did not cause any elevation of liver enzymes	highest level	highest level
